Test results as given in article PMC6099635, “New Records of Potent In-Vitro Antidiabetic Properties of Dalbergia tonkinensis Heartwood and the Bioactivity-Guided Isolation of Active Compounds” (Molecules : A Journal of Synthetic Chemistry and Natural …, 2018).
Each block holds one compound with its values, some of them ahead of it.

Assays:
Assay in all cases: colorimetric pNPG hydrolysis, […] nm
[1] = molecular target: T1, Rice α-glucosidase (Type 4); assay type: biochemical, Oryza sativa; conditions: pNPG substrate; 0.1 M potassium phosphate pH 7; 37 °C; 20 min pre-incubation, 30 min reaction
T1 construct: gene Os06g0675700

[2] = molecular target: T2, Saccharomyces cerevisiae (yeast) α-glucosidase; assay type: biochemical; conditions: pNPG substrate; 0.1 M potassium phosphate pH 7; 37 °C; 20 min pre-incubation, 30 min reaction
T2 construct: gene MAL12

Rat α-glucosidase = molecular target: T3, Rat α-glucosidase; assay type: biochemical; conditions: pNPG substrate; 0.1 M potassium phosphate pH 7; 37 °C; 20 min pre-incubation, 60 min reaction
T3 construct: gene Si; Sigma Aldrich preparation

Inhibition Expressed as EC50 (mg/mL) / Acarbose [1]: 0.031 ± 0.005 mg/mL
Inhibition Expressed as EC50 (mg/mL) / Acarbose [2]: 1.321 ± 0.048 mg/mL
Inhibition Expressed as EC50 (mg/mL) / Acarbose (Rat α-glucosidase): 0.121 ± 0.001 mg/mL
SMILES: C[C@H]1O[C@H](O[C@H]2[C@H](O)[C@@H](O)[C@@H](O[C@H]3[C@H](O)[C@@H](O)C(O)O[C@@H]3CO)O[C@@H]2CO)[C@H](O)[C@@H](O)[C@@H]1N[C@H]1C=C(CO)[C@@H](O)[C@H](O)[C@H]1O (stereo partly drawn) [acarbose, reference compound]

SMILES: COc1ccc(-c2coc3cc(O)ccc3c2=O)cc1 [compound 2, formononetin]
Inhibition Expressed as EC50 (mg/mL) / Formononetin [1]: 0.98 ± 0.029 mg/mL
Inhibition Expressed as EC50 (mg/mL) / Formononetin [2]: 0.06 ± 0.002 mg/mL
Inhibition Expressed as EC50 (mg/mL) / Formononetin (Rat α-glucosidase): 0.23 ± 0.037 mg/mL

Inhibition Expressed as EC50 (mg/mL) / Sativanone [1]: 0.81 ± 0.023 mg/mL
Inhibition Expressed as EC50 (mg/mL) / Sativanone [2]: 0.23 ± 0.012 mg/mL
Inhibition Expressed as EC50 (mg/mL) / Sativanone (Rat α-glucosidase): 0.37 ± 0.022 mg/mL
SMILES: COc1ccc(C2COc3cc(O)ccc3C2=O)c(OC)c1 (stereo not drawn) [compound 1, sativanone]
